Assay results reported in patent US20220040129A1, “TREATMENT OF HYPERAMMONEMIA IN PATIENTS WITH RENAL INSUFFICIENCY” (RECORDATI S.p.A., priority 2019, published 2022).
Like-named read-outs stand apart in the source and are kept apart here.

Test: CARIV-A-001 Part A: single ascending IV doses over 20 minutes in healthy subjects
Type: in vivo, human
Details: for CL renal / AUC(0-t) / AUC(0-inf) / clearance / Cmax / half-life / Vd: both sexes, human, iv; for CL renal: plasma and urine; for AUC(0-t) / AUC(0-inf) / clearance / Cmax / half-life / Vd: plasma
Method: This study was conducted in healthy male or female volunteers, at a single site to assess the safety and PK profile of an IV formulation of Carbaglu and to determine the absolute bioavailability of the current marketed oral formulation of Carbaglu.
The levels of CGA in plasma and urine were analysed using a fully validated method, which included LC-MS/MS analysis. The PK data were analysed based on a non-compartmental model. A model-based approach was implemented for the characterization of the PK properties of the IV formulation in order to estimate the level of PK exposure after different doses administered with different duration of infusion. […] The PK parameters were determined using SAS (version 9.3), and modelling of the PK data was performed using NONMEM (version 7.3, ICON Solutions). PART A: Mono-Centre, Randomized, Successive Groups, Double-Blind, Placebo-Controlled Study in Healthy Male and Female Subjects
Each cohort included a minimum of 3 and maximum of 5 subjects of each of the two genders.
Three loading doses of CGA over 20 minutes were tested by IV administration, 3.5 mg/kg, 5.0 mg/kg and 7.5 mg/kg. For each of these three doses, 6 subjects were administered CGA and 2 received the placebo.
Plasma concentrations of CGA were measured at 18 timepoints, including a sample preceding the start of the administration, and then between 10 minutes and 48 hours following the initiation of the IV infusion.
The PK analysis of Carbaglu was conducted by using standard non-compartmental approach.

NC(=O)N[C@@H](CCC(=O)O)C(=O)O [carglumic acid, N-carbamoyl-L-glutamic acid]
Plasma levels observed, up to (IV administration over 20 minutes, healthy volunteers): up to 26,500 ng/mL
Dose dependence of AUCinf, AUClast and Cmax (IV doses in the range of 3.5 mg/kg to 7.5 mg/kg): increase linearly
Percent of dose excreted in urine (IV over 20 minutes, stable across the doses evaluated): ~75%
Concentration up to which linearity of PK was shown (Part A): up to 26.5 μg/mL
Dose excreted in the urine as parent compound over 24 hours (after IV administration): 75 % of the dose
CL renal (3.5 mg/kg, IV over 20 minutes, 3.5 mg/kg, read-out: Renal Clearance (RCl), Mean): 0.26 L/h/kg
CL renal (3.5 mg/kg, IV over 20 minutes, 3.5 mg/kg, read-out: Renal Clearance (RCl), Median): 0.25 L/h/kg
CL renal (3.5 mg/kg, IV over 20 minutes, 3.5 mg/kg, read-out: Renal Clearance (RCl), Range): 0.2 to 0.3 L/h/kg
CL renal (5 mg/kg, IV over 20 minutes, 5.0 mg/kg, read-out: Renal Clearance (RCl), Mean): 0.23 L/h/kg
CL renal (5 mg/kg, IV over 20 minutes, 5.0 mg/kg, read-out: Renal Clearance (RCl), Median): 0.22 L/h/kg
CL renal (5 mg/kg, IV over 20 minutes, 5.0 mg/kg, read-out: Renal Clearance (RCl), Range): 0.19 to 0.31 L/h/kg
CL renal (7.5 mg/kg, IV over 20 minutes, 7.5 mg/kg, read-out: Renal Clearance (RCl), Mean): 0.26 L/h/kg
CL renal (7.5 mg/kg, IV over 20 minutes, 7.5 mg/kg, read-out: Renal Clearance (RCl), Median): 0.25 L/h/kg
CL renal (7.5 mg/kg, IV over 20 minutes, 7.5 mg/kg, read-out: Renal Clearance (RCl), Range): 0.21 to 0.32 L/h/kg
CL renal (IV over 20 minutes, stable across doses, read-out: Renal clearance (converted)): ~0.25 L/h/kg
CL renal (after IV administration, read-out: Renal clearance, median): 265 mL/min
CL renal (after IV administration, read-out: Renal clearance, range): 183 to 467 mL/min
AUC(0-t) (3.5 mg/kg, IV over 20 minutes, 3.5 mg/kg, read-out: AUC24h, Mean): 9.85 µg·h/mL
AUC(0-t) (3.5 mg/kg, IV over 20 minutes, 3.5 mg/kg, read-out: AUC24h, Median): 9.69 µg·h/mL
AUC(0-t) (3.5 mg/kg, IV over 20 minutes, 3.5 mg/kg, read-out: AUC24h, Range): 8.99 to 11 µg·h/mL
AUC(0-inf) (3.5 mg/kg, IV over 20 minutes, 3.5 mg/kg, read-out: AUCinf, Mean): 11 µg·h/mL
AUC(0-inf) (3.5 mg/kg, IV over 20 minutes, 3.5 mg/kg, read-out: AUCinf, Median): 10.9 µg·h/mL
AUC(0-inf) (3.5 mg/kg, IV over 20 minutes, 3.5 mg/kg, read-out: AUCinf, Range): 9.74 to 12.5 µg·h/mL
AUC(0-t) (3.5 mg/kg, IV over 20 minutes, 3.5 mg/kg, read-out: AUClast-timepoint, Mean): 10.2 µg·h/mL
AUC(0-t) (3.5 mg/kg, IV over 20 minutes, 3.5 mg/kg, read-out: AUClast-timepoint, Median): 10.1 µg·h/mL
AUC(0-t) (3.5 mg/kg, IV over 20 minutes, 3.5 mg/kg, read-out: AUClast-timepoint, Range): 8.99 to 11.5 µg·h/mL
clearance (3.5 mg/kg, IV over 20 minutes, 3.5 mg/kg, read-out: Clearance (Cl), Mean): 0.32 L/h/kg
clearance (3.5 mg/kg, IV over 20 minutes, 3.5 mg/kg, read-out: Clearance (Cl), Median): 0.32 L/h/kg
clearance (3.5 mg/kg, IV over 20 minutes, 3.5 mg/kg, read-out: Clearance (Cl), Range): 0.28 to 0.36 L/h/kg
Cmax (3.5 mg/kg, IV over 20 minutes, 3.5 mg/kg, read-out: Cmax, Mean): 11.4 µg/mL
Cmax (3.5 mg/kg, IV over 20 minutes, 3.5 mg/kg, read-out: Cmax, Median): 11.3 µg/mL
Cmax (3.5 mg/kg, IV over 20 minutes, 3.5 mg/kg, read-out: Cmax, Range): 10.7 to 12.3 µg/mL
half-life (3.5 mg/kg, IV over 20 minutes, 3.5 mg/kg, read-out: T1/2, Mean): 20.6 h
half-life (3.5 mg/kg, IV over 20 minutes, 3.5 mg/kg, read-out: T1/2, Median): 21.1 h
half-life (3.5 mg/kg, IV over 20 minutes, 3.5 mg/kg, read-out: T1/2, Range): 6.6 to 36.1 h
Vd (3.5 mg/kg, IV over 20 minutes, 3.5 mg/kg, read-out: Volume of Distribution (Vd), Mean): 9.28 L/kg
Vd (3.5 mg/kg, IV over 20 minutes, 3.5 mg/kg, read-out: Volume of Distribution (Vd), Median): 8.75 L/kg
Vd (3.5 mg/kg, IV over 20 minutes, 3.5 mg/kg, read-out: Volume of Distribution (Vd), Range): 3.26 to 15.5 L/kg
AUC(0-t) (5 mg/kg, IV over 20 minutes, 5.0 mg/kg, read-out: AUC24h, Mean): 14.8 µg·h/mL
AUC(0-t) (5 mg/kg, IV over 20 minutes, 5.0 mg/kg, read-out: AUC24h, Median): 14.9 µg·h/mL
AUC(0-t) (5 mg/kg, IV over 20 minutes, 5.0 mg/kg, read-out: AUC24h, Range): 11.1 to 19.3 µg·h/mL
AUC(0-inf) (5 mg/kg, IV over 20 minutes, 5.0 mg/kg, read-out: AUCinf, Mean): 16.1 µg·h/mL
AUC(0-inf) (5 mg/kg, IV over 20 minutes, 5.0 mg/kg, read-out: AUCinf, Median): 16.6 µg·h/mL
AUC(0-inf) (5 mg/kg, IV over 20 minutes, 5.0 mg/kg, read-out: AUCinf, Range): 12.3 to 20 µg·h/mL
AUC(0-t) (5 mg/kg, IV over 20 minutes, 5.0 mg/kg, read-out: AUClast-timepoint, Mean): 15.3 µg·h/mL
AUC(0-t) (5 mg/kg, IV over 20 minutes, 5.0 mg/kg, read-out: AUClast-timepoint, Median): 15.6 µg·h/mL
AUC(0-t) (5 mg/kg, IV over 20 minutes, 5.0 mg/kg, read-out: AUClast-timepoint, Range): 11.5 to 19.3 µg·h/mL
clearance (5 mg/kg, IV over 20 minutes, 5.0 mg/kg, read-out: Clearance (Cl), Mean): 0.32 L/h/kg
clearance (5 mg/kg, IV over 20 minutes, 5.0 mg/kg, read-out: Clearance (Cl), Median): 0.3 L/h/kg
clearance (5 mg/kg, IV over 20 minutes, 5.0 mg/kg, read-out: Clearance (Cl), Range): 0.25 to 0.41 L/h/kg
Cmax (5 mg/kg, IV over 20 minutes, 5.0 mg/kg, read-out: Cmax, Mean): 15 µg/mL
Cmax (5 mg/kg, IV over 20 minutes, 5.0 mg/kg, read-out: Cmax, Median): 15.6 µg/mL
Cmax (5 mg/kg, IV over 20 minutes, 5.0 mg/kg, read-out: Cmax, Range): 8.42 to 19.1 µg/mL
half-life (5 mg/kg, IV over 20 minutes, 5.0 mg/kg, read-out: T1/2, Mean): 21.6 h
half-life (5 mg/kg, IV over 20 minutes, 5.0 mg/kg, read-out: T1/2, Median): 21.4 h
half-life (5 mg/kg, IV over 20 minutes, 5.0 mg/kg, read-out: T1/2, Range): 12.8 to 29.3 h
Vd (5 mg/kg, IV over 20 minutes, 5.0 mg/kg, read-out: Volume of Distribution (Vd), Mean): 9.94 L/kg
Vd (5 mg/kg, IV over 20 minutes, 5.0 mg/kg, read-out: Volume of Distribution (Vd), Median): 10.2 L/kg
Vd (5 mg/kg, IV over 20 minutes, 5.0 mg/kg, read-out: Volume of Distribution (Vd), Range): 4.62 to 12.8 L/kg
AUC(0-t) (7.5 mg/kg, IV over 20 minutes, 7.5 mg/kg, read-out: AUC24h, Mean): 21.7 µg·h/mL
AUC(0-t) (7.5 mg/kg, IV over 20 minutes, 7.5 mg/kg, read-out: AUC24h, Median): 20.7 µg·h/mL
AUC(0-t) (7.5 mg/kg, IV over 20 minutes, 7.5 mg/kg, read-out: AUC24h, Range): 19.2 to 26.9 µg·h/mL
AUC(0-inf) (7.5 mg/kg, IV over 20 minutes, 7.5 mg/kg, read-out: AUCinf, Mean): 23.9 µg·h/mL
AUC(0-inf) (7.5 mg/kg, IV over 20 minutes, 7.5 mg/kg, read-out: AUCinf, Median): 23.2 µg·h/mL
AUC(0-inf) (7.5 mg/kg, IV over 20 minutes, 7.5 mg/kg, read-out: AUCinf, Range): 20.2 to 29.1 µg·h/mL
AUC(0-t) (7.5 mg/kg, IV over 20 minutes, 7.5 mg/kg, read-out: AUClast-timepoint, Mean): 22.6 µg·h/mL
AUC(0-t) (7.5 mg/kg, IV over 20 minutes, 7.5 mg/kg, read-out: AUClast-timepoint, Median): 22.1 µg·h/mL
AUC(0-t) (7.5 mg/kg, IV over 20 minutes, 7.5 mg/kg, read-out: AUClast-timepoint, Range): 19.6 to 27.8 µg·h/mL
clearance (7.5 mg/kg, IV over 20 minutes, 7.5 mg/kg, read-out: Clearance (Cl), Mean): 0.32 L/h/kg
clearance (7.5 mg/kg, IV over 20 minutes, 7.5 mg/kg, read-out: Clearance (Cl), Median): 0.32 L/h/kg
clearance (7.5 mg/kg, IV over 20 minutes, 7.5 mg/kg, read-out: Clearance (Cl), Range): 0.26 to 0.37 L/h/kg
Cmax (7.5 mg/kg, IV over 20 minutes, 7.5 mg/kg, read-out: Cmax, Mean): 22.9 µg/mL
Cmax (7.5 mg/kg, IV over 20 minutes, 7.5 mg/kg, read-out: Cmax, Median): 23.2 µg/mL
half-life (7.5 mg/kg, IV over 20 minutes, 7.5 mg/kg, read-out: T1/2, Mean): 24.8 h
half-life (7.5 mg/kg, IV over 20 minutes, 7.5 mg/kg, read-out: T1/2, Median): 25.5 h
half-life (7.5 mg/kg, IV over 20 minutes, 7.5 mg/kg, read-out: T1/2, Range): 15.3 to 35.4 h
Vd (7.5 mg/kg, IV over 20 minutes, 7.5 mg/kg, read-out: Volume of Distribution (Vd), Mean): 11.2 L/kg
Vd (7.5 mg/kg, IV over 20 minutes, 7.5 mg/kg, read-out: Volume of Distribution (Vd), Median): 10.8 L/kg
Vd (7.5 mg/kg, IV over 20 minutes, 7.5 mg/kg, read-out: Volume of Distribution (Vd), Range): 7.02 to 17.5 L/kg
half-life (IV over 20 minutes, across dose groups 3.5-7.5 mg/kg, read-out: Half-life, mean value (converted)): 22 h
half-life (IV over 20 minutes, each cohort, read-out: Half-life, range of cohort means): 20.6 to 24.8 h
Vd (IV over 20 minutes, each cohort, read-out: Volume of distribution (Vd), range of cohort means): 9.3 to 11.2 L/kg
clearance (IV over 20 minutes, in each cohort, read-out: Total body clearance, mean value (converted)): 0.32 L/h/kg
Vd (IV over 20 minutes, read-out: Vss, range of cohort means): 2.21 to 2.39 L/kg
Vd (after IV administration, overall analysis on the three groups, read-out: Volume of distribution, median): 10.2 L/kg
half-life (after IV administration, read-out: Terminal half-life, median (converted)): ~22 h
half-life (after IV administration, read-out: Terminal half-life, range): 7 to 36 h
clearance (after IV administration, read-out: Total clearance, median): 354 mL/min
clearance (after IV administration, read-out: Total clearance, range): 241 to 502 mL/min
